Assay results published in paper PMC5218480 (PLoS ONE, 2017).

Test system: MV-4-11 cells
Assay: Gene expression microarray analysis (Affymetrix PrimeView) and GSEA
Format: cell-based, human
Set-up: RFU PODN (11730768_x_at) / Fold change /veh PODN (11730768_x_at) / RFU LINC00158 (11744669_a_at) / Fold change /veh LINC00158 (11744669_a_at) / RFU DUSP10 (11751237_a_at) / Fold change /veh DUSP10 (11751237_a_at) / RFU ID3 (11757404_x_at) / Fold change /veh ID3 (11757404_x_at) / RFU PLEKHG5 (11737974_s_at) / Fold change /veh PLEKHG5 (11737974_s_at) / RFU LRRC4B (11730491_at) / Fold change /veh LRRC4B (11730491_at) / RFU GIMAP4 (11747438_a_at) / Fold change /veh GIMAP4 (11747438_a_at) / RFU KRT8 (11758183_x_at) / Fold change /veh KRT8 (11758183_x_at) / RFU CNN1 (11734310_a_at) / Fold change /veh CNN1 (11734310_a_at) / RFU VPS37D (11726825_at) / Fold change /veh VPS37D (11726825_at) / RFU C10orf10 (11716522_x_at) / Fold change /veh C10orf10 (11716522_x_at) / RFU KIR2DL2 /// KIR2DL4 /// KIR2DL5A /// KIR2DL5B /// KIR2DS1 /// KIR2DS2 /// KIR2DS3 /// KIR2DS4 /// KIR3DL3 /// KIR3DL3 /// KIR3DS1 (11738374_at) / Fold change /veh KIR2DL2 /// KIR2DL4 /// KIR2DL5A /// KIR2DL5B /// KIR2DS1 /// KIR2DS2 /// KIR2DS3 /// KIR2DS4 /// KIR3DL3 /// KIR3DL3 /// KIR3DS1 (11738374_at) / RFU C1QL1 (11718748_at) / Fold change /veh C1QL1 (11718748_at) / RFU TMPRSS4 (11747572_a_at) / Fold change /veh TMPRSS4 (11747572_a_at) / RFU HAMP (11756126_x_at) / Fold change /veh HAMP (11756126_x_at) / RFU RNFT2 (11725882_a_at) / Fold change /veh RNFT2 (11725882_a_at) / RFU NR4A2 (11747474_a_at) / Fold change /veh NR4A2 (11747474_a_at) / RFU ABCC12 (11746883_a_at) / Fold change /veh ABCC12 (11746883_a_at) / RFU TMEM136 (11760407_x_at) / Fold change /veh TMEM136 (11760407_x_at) / RFU CLDN22 /// WWC2 (11732394_at) / Fold change /veh CLDN22 /// WWC2 (11732394_at) / RFU HLA-DPB1 (11760878_x_at) / Fold change /veh HLA-DPB1 (11760878_x_at) / RFU SPINT1 (11716480_a_at) / Fold change /veh SPINT1 (11716480_a_at) / RFU GAP43 (11754022_s_at) / Fold change /veh GAP43 (11754022_s_at) / RFU A4GNT (11735810_at) / Fold change /veh A4GNT (11735810_at) / RFU PRB3 (11715151_x_at) / Fold change /veh PRB3 (11715151_x_at) / RFU TUBB4B (11761932_at) / Fold change /veh TUBB4B (11761932_at) / RFU CAPN14 (11732068_a_at) / Fold change /veh CAPN14 (11732068_a_at) / RFU TMCC2 (11721928_a_at) / Fold change /veh TMCC2 (11721928_a_at) / RFU IRGQ (11745062_a_at) / Fold change /veh IRGQ (11745062_a_at) / RFU FAM174B (11720279_a_at) / Fold change /veh FAM174B (11720279_a_at) / RFU TMPRSS4 (11748680_a_at) / Fold change /veh TMPRSS4 (11748680_a_at) / RFU FAM212B (11763350_a_at) / Fold change /veh FAM212B (11763350_a_at) / RFU PLEKHG5 (11743358_a_at) / Fold change /veh PLEKHG5 (11743358_a_at) / RFU ZSCAN30 (11745921_a_at) / Fold change /veh ZSCAN30 (11745921_a_at) / RFU CMKLR1 (11741424_a_at) / Fold change /veh CMKLR1 (11741424_a_at) / RFU LOC101060620 /// MAPK8IP1 (11723275_at) / Fold change /veh LOC101060620 /// MAPK8IP1 (11723275_at) / RFU SPTSSB (11747773_x_at) / Fold change /veh SPTSSB (11747773_x_at) / RFU PRSS12 (11739890_at) / Fold change /veh PRSS12 (11739890_at) / RFU BIN1 (11741810_x_at) / Fold change /veh BIN1 (11741810_x_at) / RFU WNT11 (11732464_a_at) / Fold change /veh WNT11 (11732464_a_at) / RFU C10orf10 (11716521_a_at) / Fold change /veh C10orf10 (11716521_a_at) / RFU C5orf56 (11738089_at) / Fold change /veh C5orf56 (11738089_at) / RFU CYB561 (11721691_x_at) / Fold change /veh CYB561 (11721691_x_at) / RFU ANKRD19P (11752326_a_at) / Fold change /veh ANKRD19P (11752326_a_at) / RFU OR2T12 /// OR2T33 /// OR2T8 (11738714_s_at) / Fold change /veh OR2T12 /// OR2T33 /// OR2T8 (11738714_s_at) / RFU VCAN (11748164_a_at) / Fold change /veh VCAN (11748164_a_at) / RFU JSRP1 (11732532_at) / Fold change /veh JSRP1 (11732532_at) / RFU KRTAP10-11 (11738290_x_at) / Fold change /veh KRTAP10-11 (11738290_x_at) / RFU MYO3A (11730013_a_at) / Fold change /veh MYO3A (11730013_a_at) / RFU EBF3 (11725865_a_at) / Fold change /veh EBF3 (11725865_a_at) / RFU CAMK2N1 (11719241_x_at) / Fold change /veh CAMK2N1 (11719241_x_at) / RFU C5orf56 (11738088_a_at) / Fold change /veh C5orf56 (11738088_a_at) / RFU OLFML3 (11715873_a_at) / Fold change /veh OLFML3 (11715873_a_at) / RFU LOC100653217 /// NTM (11731650_a_at) / Fold change /veh LOC100653217 /// NTM (11731650_a_at) / RFU MAPK11 (11762145_a_at) / Fold change /veh MAPK11 (11762145_a_at) / RFU FIZ1 (11724087_x_at) / Fold change /veh FIZ1 (11724087_x_at) / RFU OASL (11726364_x_at) / Fold change /veh OASL (11726364_x_at) / RFU SOX15 (11748057_x_at) / Fold change /veh SOX15 (11748057_x_at) / RFU CD79A (11719716_a_at) / Fold change /veh CD79A (11719716_a_at) / RFU HIST1H1D (11736915_at) / Fold change /veh HIST1H1D (11736915_at) / RFU CASKIN2 (11723855_a_at) / Fold change /veh CASKIN2 (11723855_a_at) / RFU LOC730098 (11760151_x_at) / Fold change /veh LOC730098 (11760151_x_at) / RFU OR4N2 (11742367_at) / Fold change /veh OR4N2 (11742367_at) / RFU PRRT2 (11749266_a_at) / Fold change /veh PRRT2 (11749266_a_at) / RFU SNX32 (11753110_a_at) / Fold change /veh SNX32 (11753110_a_at) / RFU CDHR5 (11726645_a_at) / Fold change /veh CDHR5 (11726645_a_at) / RFU RCAN1 (11760418_a_at) / Fold change /veh RCAN1 (11760418_a_at) / RFU FAM167A (11723789_a_at) / Fold change /veh FAM167A (11723789_a_at) / RFU FAM26E (11764081_at) / Fold change /veh FAM26E (11764081_at) / RFU ISYNA1 (11749810_s_at) / Fold change /veh ISYNA1 (11749810_s_at) / RFU ACY1 (11761880_at) / Fold change /veh ACY1 (11761880_at) / RFU 11764098_at / Fold change /veh 11764098_at / RFU SAMD14 (11745864_x_at) / Fold change /veh SAMD14 (11745864_x_at) / RFU NPB (11741838_a_at) / Fold change /veh NPB (11741838_a_at) / RFU TMPRSS6 (11731388_a_at) / Fold change /veh TMPRSS6 (11731388_a_at) / RFU KRTAP10-2 (11738614_at) / Fold change /veh KRTAP10-2 (11738614_at) / RFU ARHGAP8 /// PRR5-ARHGAP8 (11727945_x_at) / Fold change /veh ARHGAP8 /// PRR5-ARHGAP8 (11727945_x_at) / RFU KRTAP5-7 /// NADSYN1 (11734609_at) / Fold change /veh KRTAP5-7 /// NADSYN1 (11734609_at) / RFU RASL12 (11751679_a_at) / Fold change /veh RASL12 (11751679_a_at) / RFU CDKN2B (11736163_a_at) / Fold change /veh CDKN2B (11736163_a_at) / RFU PRF1 (11729649_at) / Fold change /veh PRF1 (11729649_at) / RFU, ZNF638 /// ZNF638-IT1 / Fold change vs veh, ZNF638 /// ZNF638-IT1 / RFU, PANK3 / Fold change vs veh, PANK3 / RFU, SH3YL1 / Fold change vs veh, SH3YL1 / RFU, ZEB2 / Fold change vs veh, ZEB2 / RFU, NRIP1 / Fold change vs veh, NRIP1 / RFU, PTTG1IP / Fold change vs veh, PTTG1IP / RFU, CAPN2 / Fold change vs veh, CAPN2 / RFU, MED14 / Fold change vs veh, MED14 / RFU, SNORA58 / Fold change vs veh, SNORA58 / RFU, C1orf63 / Fold change vs veh, C1orf63 / RFU, LRRFIP1 / Fold change vs veh, LRRFIP1 / RFU, NDUFAF7 / Fold change vs veh, NDUFAF7 / RFU, SLC12A2 / Fold change vs veh, SLC12A2 / RFU, IBTK / Fold change vs veh, IBTK / RFU, ESF1 / Fold change vs veh, ESF1 / Fold change vs veh, TMEM50B / RFU, TAOK1 / Fold change vs veh, TAOK1 / RFU, ACBD3 / Fold change vs veh, ACBD3 / RFU, TMA16 / Fold change vs veh, TMA16 / RFU, RWDD3 / Fold change vs veh, RWDD3 / RFU, BCAT1 / Fold change vs veh, BCAT1 / RFU, EDEM3 / Fold change vs veh, EDEM3 / RFU, TMEM33 / Fold change vs veh, TMEM33 / RFU, WDR75 / Fold change vs veh, WDR75 / RFU, AHCTF1 / Fold change vs veh, AHCTF1 / RFU, TFRC / Fold change vs veh, TFRC / RFU, ZDHHC17 / Fold change vs veh, ZDHHC17 / RFU, NOM1 / Fold change vs veh, NOM1 / RFU, ARL8B / Fold change vs veh, ARL8B / RFU, ZBTB11 / Fold change vs veh, ZBTB11 / RFU, TAMM41 / Fold change vs veh, TAMM41 / RFU, KIAA1704 /// LOC100996395 / Fold change vs veh, KIAA1704 /// LOC100996395 / RFU, ING1 / Fold change vs veh, ING1 / RFU, TRMT61B / Fold change vs veh, TRMT61B / RFU, FUBP3 / Fold change vs veh, FUBP3 / RFU, TP53 / Fold change vs veh, TP53 / RFU, TNKS2 / Fold change vs veh, TNKS2 / RFU, ZFP14 / Fold change vs veh, ZFP14 / RFU, ACTR2 / Fold change vs veh, ACTR2 / RFU, PPP3R1 / Fold change vs veh, PPP3R1 / RFU, PIK3R1 / Fold change vs veh, PIK3R1 / RFU, HNRNPA1 / Fold change vs veh, HNRNPA1 / RFU, RNF170 / Fold change vs veh, RNF170 / RFU, ZNF28 / Fold change vs veh, ZNF28 / RFU, RNGTT / Fold change vs veh, RNGTT / RFU, OGT / Fold change vs veh, OGT / RFU, BRD1 / Fold change vs veh, BRD1 / RFU, MARS / Fold change vs veh, MARS / RFU, ZNF655 / Fold change vs veh, ZNF655 / RFU, FAHD1 / Fold change vs veh, FAHD1 / RFU, BDP1 / Fold change vs veh, BDP1 / RFU, LRRCC1 / Fold change vs veh, LRRCC1 / RFU, ARID1A / Fold change vs veh, ARID1A / RFU, ZNF146 / Fold change vs veh, ZNF146 / RFU, ZNF330 / Fold change vs veh, ZNF330 / RFU, GPN3 / Fold change vs veh, GPN3 / RFU, C9orf123 / Fold change vs veh, C9orf123 / RFU, N4BP2L2 / Fold change vs veh, N4BP2L2 / RFU, ARFIP1 / Fold change vs veh, ARFIP1 / RFU, FAM179B / Fold change vs veh, FAM179B / RFU, BCL10 / Fold change vs veh, BCL10 / RFU, UHRF1BP1L / Fold change vs veh, UHRF1BP1L / RFU, BET1 / Fold change vs veh, BET1 / RFU, CNOT2 / Fold change vs veh, CNOT2 / RFU, ZNF268 / Fold change vs veh, ZNF268 / Fold change vs veh, ZNF507 / RFU, DGCR2 / Fold change vs veh, DGCR2 / RFU, WDSUB1 / Fold change vs veh, WDSUB1 / Fold change vs veh, HSP90B1 /// MIR3652 / RFU, ADSS / Fold change vs veh, ADSS / RFU, GK / Fold change vs veh, GK / RFU, ZNF148 / Fold change vs veh, ZNF148 / RFU, TAF9 / Fold change vs veh, TAF9 / RFU, SLC1A5 / Fold change vs veh, SLC1A5 / RFU, SLMO2 / Fold change vs veh, SLMO2 / RFU, ABCC4 / Fold change vs veh, ABCC4 / RFU, LOC101060439 /// RAP1B / Fold change vs veh, LOC101060439 /// RAP1B / RFU, RFX7 / Fold change vs veh, RFX7 / RFU, GTPBP10 / Fold change vs veh, GTPBP10 / RFU, CNEP1R1 / Fold change vs veh, CNEP1R1 / RFU, BIVM-ERCC5 /// ERCC5 / Fold change vs veh, BIVM-ERCC5 /// ERCC5 / RFU, ILF3 / Fold change vs veh, ILF3 / RFU 11762660_at / Fold change /veh 11762660_at / RFU VCAN (11757783_s_at) / Fold change /veh VCAN (11757783_s_at) / RFU DDX43 (11728927_at) / Fold change /veh DDX43 (11728927_at) / RFU KRT8 (11758188_x_at) / Fold change /veh KRT8 (11758188_x_at) / RFU NKD1 (11759106_at) / Fold change /veh NKD1 (11759106_at) / RFU SRD5A1 (11742802_a_at) / Fold change /veh SRD5A1 (11742802_a_at) / RFU TPSAB1 /// TPSB2 (11721975_s_at) / Fold change /veh TPSAB1 /// TPSB2 (11721975_s_at) / RFU GSTM3 (11746129_a_at) / Fold change /veh GSTM3 (11746129_a_at) / RFU IL23R (11737362_x_at) / Fold change /veh IL23R (11737362_x_at) / RFU TMEM51 (11727254_a_at) / Fold change /veh TMEM51 (11727254_a_at) / RFU PIWIL2 (11732686_x_at) / Fold change /veh PIWIL2 (11732686_x_at) / RFU ORM1 (11744905_x_at) / Fold change /veh ORM1 (11744905_x_at) / RFU CCDC152 (11743942_at) / Fold change /veh CCDC152 (11743942_at) / RFU ECM1 (11717891_a_at) / Fold change /veh ECM1 (11717891_a_at) / RFU IL23R (11748794_a_at) / Fold change /veh IL23R (11748794_a_at) / RFU TNFAIP8L3 (11732012_x_at) / Fold change /veh TNFAIP8L3 (11732012_x_at) / RFU MBOAT4 (11741988_at) / Fold change /veh MBOAT4 (11741988_at) / RFU 11764193_at / Fold change /veh 11764193_at / RFU TMEM53 (11763286_at) / Fold change /veh TMEM53 (11763286_at) / RFU MAGEB2 (11727129_at) / Fold change /veh MAGEB2 (11727129_at) / RFU TMEM200A (11744735_a_at) / Fold change /veh TMEM200A (11744735_a_at) / RFU CCDC152 (11751479_a_at) / Fold change /veh CCDC152 (11751479_a_at) / RFU FAM211A (11726209_a_at) / Fold change /veh FAM211A (11726209_a_at) / RFU RGS16 (11746705_a_at) / Fold change /veh RGS16 (11746705_a_at) / RFU VCAN (11755009_s_at) / Fold change /veh VCAN (11755009_s_at) / RFU RHOB (11743442_s_at) / Fold change /veh RHOB (11743442_s_at) / RFU RGS16 (11720943_a_at) / Fold change /veh RGS16 (11720943_a_at) / RFU RGS16 (11720944_at) / Fold change /veh RGS16 (11720944_at) / RFU, VPS4B / Fold change vs veh, VPS4B / RFU, CREB1 / Fold change vs veh, CREB1 / RFU, DNAJC13 / Fold change vs veh, DNAJC13 / RFU, GNAQ / Fold change vs veh, GNAQ / RFU, CDK5R1 / Fold change vs veh, CDK5R1 / RFU, ZRANB3 / Fold change vs veh, ZRANB3 / RFU, CUL4A / Fold change vs veh, CUL4A / RFU, CCNY / Fold change vs veh, CCNY / RFU, UFL1 / Fold change vs veh, UFL1 / RFU, COG3 / Fold change vs veh, COG3 / RFU, DIAPH2 / Fold change vs veh, DIAPH2 / RFU, SKA2 / Fold change vs veh, SKA2 / RFU, AFF3 / Fold change vs veh, AFF3 / RFU, LMF1 / Fold change vs veh, LMF1 / RFU, IPO11 / Fold change vs veh, IPO11 / RFU, DFFB / Fold change vs veh, DFFB / RFU, FOXP1 / Fold change vs veh, FOXP1 / RFU, CARD8 / Fold change vs veh, CARD8 / RFU, STRN3 / Fold change vs veh, STRN3 / RFU, ADK / Fold change vs veh, ADK / RFU, RASSF2 / Fold change vs veh, RASSF2 / RFU, WIPF1 / Fold change vs veh, WIPF1 / RFU, LARP1B / Fold change vs veh, LARP1B / RFU, RASA1 / Fold change vs veh, RASA1 / RFU, RB1 / Fold change vs veh, RB1 / RFU, PPFIA1 / Fold change vs veh, PPFIA1 / RFU, MAT2A / Fold change vs veh, MAT2A / RFU, CCT5 / Fold change vs veh, CCT5 / RFU, WDR92 / Fold change vs veh, WDR92 / RFU, CUX1 / Fold change vs veh, CUX1 / RFU, TTC7A / Fold change vs veh, TTC7A / RFU, TMEM135 / Fold change vs veh, TMEM135 / RFU, DEPTOR / Fold change vs veh, DEPTOR / RFU, CPM / Fold change vs veh, CPM / RFU, DNAJB6 / Fold change vs veh, DNAJB6 / RFU, CACNA2D3 / Fold change vs veh, CACNA2D3 / RFU, DTX4 / Fold change vs veh, DTX4 / RFU, TFCP2 / Fold change vs veh, TFCP2 / RFU, GMCL1 /// GMCL1P1 / Fold change vs veh, GMCL1 /// GMCL1P1 / RFU, AEBP2 / Fold change vs veh, AEBP2 / RFU, SNHG1 /// SNORD22 /// SNORD25 /// SNORD26 /// SNORD27 /// SNORD28 /// SNORD29 /// SNORD31 / Fold change vs veh, SNHG1 /// SNORD22 /// SNORD25 /// SNORD26 /// SNORD27 /// SNORD28 /// SNORD29 /// SNORD31 / Fold change (Aza/veh), C12orf56 (ProbeSet 11735607_a_at) / Fold change (ACY-1035/veh), C12orf56 (ProbeSet 11735607_a_at) / Fold change (Aza/veh), FGFR1OP (ProbeSet 11751329_s_at) / Fold change (ACY-1035/veh), FGFR1OP (ProbeSet 11751329_s_at) / Fold change (Aza/veh), VPS36 (ProbeSet 11739960_a_at) / Fold change (ACY-1035/veh), VPS36 (ProbeSet 11739960_a_at) / RFU SYPL1 (11715823_x_at) / Fold change /veh SYPL1 (11715823_x_at) / RFU IGFBP7 (11715501_s_at) / Fold change /veh IGFBP7 (11715501_s_at) / RFU REEP3 (11722064_at) / Fold change /veh REEP3 (11722064_at) / RFU IGLL1 (11728026_x_at) / Fold change /veh IGLL1 (11728026_x_at): dose or concentration left out as unconfirmed
Settings: MV-4-11 cells, 48 hours

With `Nc1ccc(-c2cccs2)cc1NC(=O)c1ccc2c(c1)cc(C1CC1)n2CCN1CCOCC1` [ACY-1035] the “RFU CD79A (11719716_a_at)” value was 10.45 RFU.
